Data from the NIST ThermoML archive (doi:10.1016/j.jct.2012.12.026).
Numbers after ± are expanded uncertainties.

Details: Liquid, Closed cell (Static) method

For FC(F)C(F)F [1,1,2,2-tetrafluoroethane], the “vapor or sublimation pressure” value (278.15 K) was 271.3 ± 1.3 kPa and the “vapor or sublimation pressure” value (288.15 K) was 382.9 ± 1.5 kPa.

With F/C=C/C(F)(F)F [trans-1,3,3,3-tetrafluoropropene] the “vapor or sublimation pressure” value (258.15 K) was 120.2 ± 1 kPa, the “vapor or sublimation pressure” value (268.15 K) was 179.3 ± 1 kPa and the “vapor or sublimation pressure” value (278.15 K) was 259.2 ± 1.1 kPa. The “vapor or sublimation pressure” value (288.15 K) was 364.2 ± 1.1 kPa.
